Source: patent US12157741B2, “Macrocyclic inhibitors of DYRK1A” (DANA-FARBER CANCER INSTITUTE, INC., priority 2018, dated 2024)
Where two headings read alike, the source gives them in different places.

Experiments:
Type in all cases: binding
various enzymes [1] = target: various enzymes (Homo sapiens, UniProt Q04759); conditions: compound 1 uM
Description: (§1) Ambit profiling was conducted in accordance with the manufacturer's instructions.

various enzymes [2] = target: various enzymes (Homo sapiens, UniProt Q9UEE5); conditions: compound 1 uM
Description: as §1

various enzymes [3] = target: various enzymes (Homo sapiens, UniProt Q7KZI7); conditions: compound 1 uM
Description: as §1

various enzymes [4] = target: various enzymes (Homo sapiens, UniProt P36896); conditions: compound 1 uM
Description: as §1

various enzymes [5] = target: various enzymes (Homo sapiens, UniProt Q15139); conditions: compound 1 uM
Description: as §1

various enzymes [6] = target: various enzymes (Homo sapiens, UniProt P43405); conditions: compound 1 uM
Description: as §1

various enzymes [7] = target: various enzymes (Homo sapiens, UniProt O14920); conditions: compound 1 uM
Description: as §1

various enzymes [8] = target: various enzymes (Homo sapiens, UniProt Q9P0L2); conditions: compound 1 uM
Description: as §1

various enzymes [9] = target: various enzymes (Homo sapiens, UniProt P41240); conditions: compound 1 uM
Description: as §1

various enzymes [10] = target: various enzymes (Homo sapiens, UniProt P51451); conditions: compound 1 uM
Description: as §1

various enzymes [11] = target: various enzymes (Homo sapiens, UniProt Q8IVW4); conditions: compound 1 uM
Sequence of various enzymes (Homo sapiens, UniProt Q8IVW4) (Q8IVW4 whole entry): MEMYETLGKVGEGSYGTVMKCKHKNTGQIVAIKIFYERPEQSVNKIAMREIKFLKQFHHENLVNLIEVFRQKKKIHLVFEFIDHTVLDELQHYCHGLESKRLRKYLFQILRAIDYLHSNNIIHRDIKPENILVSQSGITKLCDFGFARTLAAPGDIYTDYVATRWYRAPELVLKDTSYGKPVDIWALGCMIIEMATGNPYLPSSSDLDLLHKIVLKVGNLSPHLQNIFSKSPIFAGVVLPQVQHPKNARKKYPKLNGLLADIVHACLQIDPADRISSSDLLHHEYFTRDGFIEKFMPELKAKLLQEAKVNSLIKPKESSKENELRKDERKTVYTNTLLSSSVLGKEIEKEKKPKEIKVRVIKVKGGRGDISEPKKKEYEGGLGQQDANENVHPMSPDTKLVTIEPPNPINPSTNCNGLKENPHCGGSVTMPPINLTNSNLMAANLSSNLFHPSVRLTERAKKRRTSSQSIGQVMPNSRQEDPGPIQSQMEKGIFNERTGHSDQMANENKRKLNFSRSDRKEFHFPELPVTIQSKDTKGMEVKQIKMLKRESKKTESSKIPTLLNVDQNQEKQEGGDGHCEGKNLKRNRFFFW
Description: as §1

various enzymes [12] = target: various enzymes (Homo sapiens, UniProt Q8TBX8); conditions: compound 1 uM
Description: as §1

various enzymes [13] = target: various enzymes (Homo sapiens, UniProt Q05655); conditions: compound 1 uM
Description: as §1

various enzymes [14] = target: various enzymes (Homo sapiens, UniProt Q96PY6); conditions: compound 1 uM
Description: as §1

various enzymes [15] = target: various enzymes (Homo sapiens, UniProt Q8TDR2); conditions: compound 1 uM
Description: as §1

various enzymes [16] = target: various enzymes (Homo sapiens, UniProt P00519, H396P); conditions: compound 1 uM
Description: as §1

various enzymes [17] = target: various enzymes (Homo sapiens, UniProt Q5S007, G2019S)
Description: as §1

various enzymes [18] = target: various enzymes (Homo sapiens, UniProt P36897); conditions: compound 1 uM
Sequence of various enzymes (Homo sapiens, UniProt P36897) (P36897 34-503): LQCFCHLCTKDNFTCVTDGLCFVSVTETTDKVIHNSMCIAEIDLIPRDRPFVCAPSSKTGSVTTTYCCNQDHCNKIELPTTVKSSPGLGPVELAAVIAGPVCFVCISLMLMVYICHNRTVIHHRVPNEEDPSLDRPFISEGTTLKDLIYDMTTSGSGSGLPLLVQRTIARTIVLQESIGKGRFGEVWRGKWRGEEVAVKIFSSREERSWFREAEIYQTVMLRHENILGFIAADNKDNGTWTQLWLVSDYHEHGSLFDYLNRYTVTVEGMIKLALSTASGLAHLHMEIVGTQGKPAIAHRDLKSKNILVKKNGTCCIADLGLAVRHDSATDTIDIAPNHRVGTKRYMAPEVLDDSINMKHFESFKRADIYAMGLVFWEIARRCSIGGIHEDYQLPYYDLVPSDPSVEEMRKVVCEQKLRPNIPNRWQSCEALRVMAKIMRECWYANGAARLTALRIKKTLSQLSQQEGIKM
Description: as §1

various enzymes [19] = target: various enzymes (Homo sapiens, UniProt O75116); conditions: compound 1 uM
Description: as §1

various enzymes [20] = target: various enzymes (Homo sapiens, UniProt P36888, D835H)
Description: as §1

various enzymes [21] = target: various enzymes (Homo sapiens, UniProt O75747); conditions: compound 1 uM
Description: as §1

various enzymes [22] = target: various enzymes (Homo sapiens, UniProt P42336, E542K)
Description: as §1

various enzymes [23] = target: various enzymes (Homo sapiens, UniProt P16234); conditions: compound 1 uM
Description: as §1

various enzymes [24] = target: various enzymes (Homo sapiens, UniProt P17948); conditions: compound 1 uM
Description: as §1

various enzymes [25] = target: various enzymes (Homo sapiens, UniProt Q16288); conditions: compound 1 uM
Description: as §1

various enzymes [26] = target: various enzymes (Homo sapiens, UniProt P43403); conditions: compound 1 uM
Description: as §1

various enzymes [27] = target: various enzymes (Homo sapiens, UniProt P07949, V804L)
Description: as §1

various enzymes [28] = target: various enzymes (Homo sapiens, UniProt Q6DT37); conditions: compound 1 uM
Sequence of various enzymes (Homo sapiens, UniProt Q6DT37) (Q6DT37 whole entry): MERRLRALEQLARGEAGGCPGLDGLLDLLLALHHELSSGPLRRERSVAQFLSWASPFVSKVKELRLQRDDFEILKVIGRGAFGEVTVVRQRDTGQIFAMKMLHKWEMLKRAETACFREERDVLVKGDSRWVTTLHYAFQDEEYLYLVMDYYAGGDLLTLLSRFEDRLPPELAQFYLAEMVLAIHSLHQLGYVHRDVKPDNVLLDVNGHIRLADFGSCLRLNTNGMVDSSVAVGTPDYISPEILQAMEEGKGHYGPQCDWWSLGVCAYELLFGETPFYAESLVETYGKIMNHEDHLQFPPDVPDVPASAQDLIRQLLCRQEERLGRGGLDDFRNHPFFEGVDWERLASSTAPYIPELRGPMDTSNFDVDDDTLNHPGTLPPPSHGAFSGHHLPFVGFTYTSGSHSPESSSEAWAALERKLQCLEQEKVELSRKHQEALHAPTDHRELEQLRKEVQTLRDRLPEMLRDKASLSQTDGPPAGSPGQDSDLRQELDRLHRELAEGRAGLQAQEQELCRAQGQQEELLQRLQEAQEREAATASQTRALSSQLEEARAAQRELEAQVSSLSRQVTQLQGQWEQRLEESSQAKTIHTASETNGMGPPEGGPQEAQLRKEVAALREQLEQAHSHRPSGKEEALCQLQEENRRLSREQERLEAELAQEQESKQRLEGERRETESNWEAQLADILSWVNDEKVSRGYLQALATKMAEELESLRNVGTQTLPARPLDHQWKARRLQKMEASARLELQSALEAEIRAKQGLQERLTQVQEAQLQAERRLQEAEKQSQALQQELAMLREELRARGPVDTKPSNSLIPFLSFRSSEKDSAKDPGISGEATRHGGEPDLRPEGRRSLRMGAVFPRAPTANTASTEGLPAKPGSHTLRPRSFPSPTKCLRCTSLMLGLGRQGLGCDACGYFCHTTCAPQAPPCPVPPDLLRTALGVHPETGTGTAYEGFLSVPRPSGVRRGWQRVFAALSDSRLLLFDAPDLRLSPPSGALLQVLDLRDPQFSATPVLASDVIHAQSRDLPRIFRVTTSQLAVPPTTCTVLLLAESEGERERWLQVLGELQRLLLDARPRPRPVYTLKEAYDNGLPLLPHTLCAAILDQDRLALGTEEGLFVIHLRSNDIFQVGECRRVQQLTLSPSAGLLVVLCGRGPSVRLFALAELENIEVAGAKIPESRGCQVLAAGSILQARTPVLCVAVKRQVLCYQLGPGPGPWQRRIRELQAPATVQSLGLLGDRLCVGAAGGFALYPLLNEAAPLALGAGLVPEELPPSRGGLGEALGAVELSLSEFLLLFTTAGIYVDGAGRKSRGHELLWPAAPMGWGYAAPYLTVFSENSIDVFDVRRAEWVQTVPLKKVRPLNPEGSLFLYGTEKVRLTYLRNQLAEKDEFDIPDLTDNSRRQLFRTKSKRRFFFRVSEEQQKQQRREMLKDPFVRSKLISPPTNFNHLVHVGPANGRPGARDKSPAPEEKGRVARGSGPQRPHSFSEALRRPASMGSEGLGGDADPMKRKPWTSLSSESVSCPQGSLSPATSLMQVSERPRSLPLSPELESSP
Description: as §1

various enzymes [29] = target: various enzymes (Homo sapiens, UniProt Q02779); conditions: compound 1 uM
Description: as §1

various enzymes [30] = target: various enzymes (Homo sapiens, UniProt P49759); conditions: compound 1 uM
Description: as §1

various enzymes [31] = target: various enzymes (Homo sapiens, UniProt Q13177); conditions: compound 1 uM
Description: as §1

various enzymes [32] = target: various enzymes (Homo sapiens, UniProt P49840); conditions: compound 1 uM
Sequence of various enzymes (Homo sapiens, UniProt P49840) (P49840 whole entry): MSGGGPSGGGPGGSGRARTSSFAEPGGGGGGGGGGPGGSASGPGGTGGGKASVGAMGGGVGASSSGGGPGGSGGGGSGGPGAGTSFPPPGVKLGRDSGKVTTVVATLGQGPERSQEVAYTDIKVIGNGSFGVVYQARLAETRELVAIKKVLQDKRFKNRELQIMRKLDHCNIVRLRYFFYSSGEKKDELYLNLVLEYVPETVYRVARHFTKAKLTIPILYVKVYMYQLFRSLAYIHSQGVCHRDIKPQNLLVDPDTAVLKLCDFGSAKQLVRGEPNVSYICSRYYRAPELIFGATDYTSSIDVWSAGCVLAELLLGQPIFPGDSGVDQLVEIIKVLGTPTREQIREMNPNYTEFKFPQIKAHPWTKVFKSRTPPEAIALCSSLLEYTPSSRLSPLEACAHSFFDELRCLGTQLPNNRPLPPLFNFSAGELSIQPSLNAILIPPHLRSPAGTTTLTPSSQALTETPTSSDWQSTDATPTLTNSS
Description: as §1

various enzymes [33] = target: various enzymes (Homo sapiens, UniProt P00533, L858R)
Description: as §1

various enzymes [34] = target: various enzymes (Plasmodium falciparum, UniProt P61075)
Description: as §1

various enzymes [35] = target: various enzymes (Homo sapiens, UniProt P35916); conditions: compound 1 uM
Description: as §1

various enzymes [36] = target: various enzymes (Homo sapiens, UniProt Q9Y243); conditions: compound 1 uM
Description: as §1

various enzymes [37] = target: various enzymes (Homo sapiens, UniProt Q99558); conditions: compound 1 uM
Description: as §1

various enzymes [38] = target: various enzymes (Homo sapiens, UniProt Q9UKI8); conditions: compound 1 uM
Description: as §1

various enzymes [39] = target: various enzymes (Homo sapiens, UniProt P23458); conditions: compound 1 uM
Sequence of various enzymes (Homo sapiens, UniProt P23458) (P23458 whole entry): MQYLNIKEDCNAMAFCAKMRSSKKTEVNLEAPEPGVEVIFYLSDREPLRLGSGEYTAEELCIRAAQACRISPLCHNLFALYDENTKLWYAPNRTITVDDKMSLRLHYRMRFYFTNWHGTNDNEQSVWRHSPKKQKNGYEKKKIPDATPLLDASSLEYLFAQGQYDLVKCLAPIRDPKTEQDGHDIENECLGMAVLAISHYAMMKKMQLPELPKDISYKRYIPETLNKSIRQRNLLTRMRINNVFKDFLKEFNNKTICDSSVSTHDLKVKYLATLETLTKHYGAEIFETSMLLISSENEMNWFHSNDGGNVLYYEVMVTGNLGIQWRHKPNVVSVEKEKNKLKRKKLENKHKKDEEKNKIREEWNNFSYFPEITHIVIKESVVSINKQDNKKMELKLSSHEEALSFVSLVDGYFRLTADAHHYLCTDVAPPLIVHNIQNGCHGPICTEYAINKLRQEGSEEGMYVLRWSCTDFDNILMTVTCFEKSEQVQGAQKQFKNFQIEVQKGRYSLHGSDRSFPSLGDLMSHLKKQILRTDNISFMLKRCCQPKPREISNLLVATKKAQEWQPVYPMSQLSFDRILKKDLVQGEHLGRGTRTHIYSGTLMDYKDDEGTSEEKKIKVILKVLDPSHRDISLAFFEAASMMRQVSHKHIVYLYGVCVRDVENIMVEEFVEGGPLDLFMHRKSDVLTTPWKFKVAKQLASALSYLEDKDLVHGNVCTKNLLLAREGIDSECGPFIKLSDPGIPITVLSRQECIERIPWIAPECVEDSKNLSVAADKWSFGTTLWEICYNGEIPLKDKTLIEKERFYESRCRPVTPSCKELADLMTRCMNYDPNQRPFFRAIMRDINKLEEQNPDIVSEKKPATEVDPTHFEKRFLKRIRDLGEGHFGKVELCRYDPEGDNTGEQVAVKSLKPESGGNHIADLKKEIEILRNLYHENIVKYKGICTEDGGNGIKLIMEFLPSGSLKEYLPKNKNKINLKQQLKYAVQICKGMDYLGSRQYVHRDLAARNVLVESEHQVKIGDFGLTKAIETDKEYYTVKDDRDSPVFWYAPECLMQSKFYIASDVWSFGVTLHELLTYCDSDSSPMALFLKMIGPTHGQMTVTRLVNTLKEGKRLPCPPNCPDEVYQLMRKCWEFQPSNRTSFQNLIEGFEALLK
Description: as §1

various enzymes [40] = target: various enzymes (Homo sapiens, UniProt O95747); conditions: compound 1 uM
Description: as §1

various enzymes [41] = target: various enzymes (Homo sapiens, UniProt P27448); conditions: compound 1 uM
Description: as §1

various enzymes [42] = target: various enzymes (Homo sapiens, UniProt Q9BQI3); conditions: compound 1 uM
Description: as §1

various enzymes [43] = target: various enzymes (Homo sapiens, UniProt P08069); conditions: compound 1 uM
Description: as §1

Sequence of various enzymes (Homo sapiens, UniProt Q04759) (Q04759 whole entry): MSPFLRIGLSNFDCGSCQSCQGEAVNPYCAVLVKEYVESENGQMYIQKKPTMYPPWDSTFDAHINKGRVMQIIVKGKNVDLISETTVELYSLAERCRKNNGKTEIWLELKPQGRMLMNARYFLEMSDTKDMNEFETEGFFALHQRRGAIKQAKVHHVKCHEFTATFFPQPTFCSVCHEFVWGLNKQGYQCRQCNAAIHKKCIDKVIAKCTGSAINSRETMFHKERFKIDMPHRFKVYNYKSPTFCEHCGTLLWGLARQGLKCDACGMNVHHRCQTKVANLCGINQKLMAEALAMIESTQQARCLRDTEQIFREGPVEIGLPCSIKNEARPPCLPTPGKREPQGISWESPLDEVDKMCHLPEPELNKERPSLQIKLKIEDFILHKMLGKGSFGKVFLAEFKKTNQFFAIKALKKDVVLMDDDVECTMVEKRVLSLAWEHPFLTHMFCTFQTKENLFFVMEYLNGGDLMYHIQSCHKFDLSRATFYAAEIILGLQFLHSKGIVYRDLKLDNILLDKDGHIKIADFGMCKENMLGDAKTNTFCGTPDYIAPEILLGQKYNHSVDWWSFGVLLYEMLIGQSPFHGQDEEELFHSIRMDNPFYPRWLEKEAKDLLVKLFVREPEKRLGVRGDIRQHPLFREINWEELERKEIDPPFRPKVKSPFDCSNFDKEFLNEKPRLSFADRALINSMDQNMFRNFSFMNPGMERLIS

CC(C)N1Cc2nn(C)cc2-c2cnc3[nH]cc(c3c2)-c2cn(nc2C(F)(F)F)CCCC1=O [Compound 45, (Z)-5-isopropyl-31-methyl-13-(trifluoromethyl)-11H,21H,31H-5-aza-2(3,5)-pyrrolo[2,3-b]pyridina-1(4,1),3(4,3)-dipyrazolacyclononaphan-6-one]
Ambit profiling: PRKCQ (various enzymes [1]): 27 | Ambit profiling: DRAK1 (various enzymes [2]): 100 | Ambit profiling: MARK2 (various enzymes [3]): 48 | Ambit profiling: ACVR1B (various enzymes [4]): 89 | Ambit profiling: PRKD1 (various enzymes [5]): 36 | Ambit profiling: SYK (various enzymes [6]): 35 | Ambit profiling: IKK-beta (various enzymes [7]): 100 | Ambit profiling: MARK1 (various enzymes [8]): 33 | Ambit profiling: CSK (various enzymes [9]): 3.9 | Ambit profiling: BLK (various enzymes [10]): 3.7 | Ambit profiling: CDKL3 (various enzymes [11]): 100 | Ambit profiling: PIP5K2C (various enzymes [12]): 100 | Ambit profiling: PRKCD (various enzymes [13]): 71 | Ambit profiling: NEK1 (various enzymes [14]): 100 | Ambit profiling: STK35 (various enzymes [15]): 100 | Ambit profiling: ABL1(H396P)-nonphosphorylated (various enzymes [16]): 1.9 | Ambit profiling: ABL1(H396P)-phosphorylated (various enzymes [16]): 24 | Ambit profiling: LRRK2(G2019S) (various enzymes [17]; compound 1 uM): 53 | Ambit profiling: TGFBR1 (various enzymes [18]): 87 | Ambit profiling: ROCK2 (various enzymes [19]): 100 | Ambit profiling: FLT3(D835H) (various enzymes [20]; compound 1 uM): 1.6 | Ambit profiling: PIK3C2G (various enzymes [21]): 97 | Ambit profiling: PIK3CA(E542K) (various enzymes [22]; compound 1 uM): 98 | Ambit profiling: PDGFRA (various enzymes [23]): 11 | Ambit profiling: FLT1 (various enzymes [24]): 5.4 | Ambit profiling: TRKC (various enzymes [25]): 0.1 | Ambit profiling: ZAP70 (various enzymes [26]): 83 | Ambit profiling: RET(V804L) (various enzymes [27]; compound 1 uM): 10 | Ambit profiling: DMPK2 (various enzymes [28]): 53 | Ambit profiling: MLK2 (various enzymes [29]): 36 | Ambit profiling: CLK1 (various enzymes [30]): 9.9 | Ambit profiling: PAK2 (various enzymes [31]): 74 | Ambit profiling: GSK3A (various enzymes [32]): 17 | Ambit profiling: EGFR(L858R) (various enzymes [33]; compound 1 uM): 25 | Ambit profiling: PFPK5(P. falciparum) (various enzymes [34]; compound 1 uM): 82 | Ambit profiling: FLT4 (various enzymes [35]): 0.1 | Ambit profiling: AKT3 (various enzymes [36]): 100 | Ambit profiling: NIK (various enzymes [37]): 94 | Ambit profiling: TLK1 (various enzymes [38]): 55 | Ambit profiling: JAK1(JH1domain-catalytic) (various enzymes [39]): 36 | Ambit profiling: JAK1(JH2domain-pseudokinase) (various enzymes [39]): 65 | Ambit profiling: OSR1 (various enzymes [40]): 100 | Ambit profiling: MARK3 (various enzymes [41]): 32 | Ambit profiling: EIF2AK1 (various enzymes [42]): 100 | Ambit profiling: IGF1R (various enzymes [43]): 86

COc1c2c(nn1C)CN(C(C)C)C(=O)CCCn1cc(c(C(F)(F)F)n1)-c1c[nH]c3ncc-2cc13 [Compound 50, (Z)-5-isopropyl-35-methoxy-31-methyl-13-(trifluoromethyl)-11H,21H,31H-5-aza-2(3,5)-pyrrolo[2,3-b]pyridina-1(4,1),3(4,3)-dipyrazolacyclononaphan-6-one]
Ambit profiling: PRKCQ (various enzymes [1]): 13 | Ambit profiling: DRAK1 (various enzymes [2]): 100 | Ambit profiling: MARK2 (various enzymes [3]): 100 | Ambit profiling: ACVR1B (various enzymes [4]): 57 | Ambit profiling: PRKD1 (various enzymes [5]): 33 | Ambit profiling: SYK (various enzymes [6]): 26 | Ambit profiling: IKK-beta (various enzymes [7]): 87 | Ambit profiling: MARK1 (various enzymes [8]): 39 | Ambit profiling: CSK (various enzymes [9]): 4.7 | Ambit profiling: BLK (various enzymes [10]): 1.6 | Ambit profiling: CDKL3 (various enzymes [11]): 80 | Ambit profiling: PIP5K2C (various enzymes [12]): 20 | Ambit profiling: PRKCD (various enzymes [13]): 43 | Ambit profiling: NEK1 (various enzymes [14]): 71 | Ambit profiling: STK35 (various enzymes [15]): 94 | Ambit profiling: ABL1(H396P)-nonphosphorylated (various enzymes [16]): 0.2 | Ambit profiling: ABL1(H396P)-phosphorylated (various enzymes [16]): 3.9 | Ambit profiling: LRRK2(G2019S) (various enzymes [17]): 27 | Ambit profiling: TGFBR1 (various enzymes [18]): 36 | Ambit profiling: ROCK2 (various enzymes [19]): 67 | Ambit profiling: FLT3(D835H) (various enzymes [20]): 2.8 | Ambit profiling: PIK3C2G (various enzymes [21]): 58 | Ambit profiling: PIK3CA(E542K) (various enzymes [22]): 85 | Ambit profiling: PDGFRA (various enzymes [23]): 5.6 | Ambit profiling: FLT1 (various enzymes [24]): 5.9 | Ambit profiling: TRKC (various enzymes [25]): 0 | Ambit profiling: ZAP70 (various enzymes [26]): 100 | Ambit profiling: RET(V804L) (various enzymes [27]): 18 | Ambit profiling: DMPK2 (various enzymes [28]): 47 | Ambit profiling: MLK2 (various enzymes [29]): 60 | Ambit profiling: CLK1 (various enzymes [30]): 18 | Ambit profiling: PAK2 (various enzymes [31]): 100 | Ambit profiling: GSK3A (various enzymes [32]): 93 | Ambit profiling: EGFR(L858R) (various enzymes [33]): 18 | Ambit profiling: PFPK5(P. falciparum) (various enzymes [34]): 79 | Ambit profiling: FLT4 (various enzymes [35]): 0.1 | Ambit profiling: AKT3 (various enzymes [36]): 100 | Ambit profiling: NIK (various enzymes [37]): 86 | Ambit profiling: TLK1 (various enzymes [38]): 58 | Ambit profiling: JAK1(JH1domain-catalytic) (various enzymes [39]): 100 | Ambit profiling: JAK1(JH2domain-pseudokinase) (various enzymes [39]): 81 | Ambit profiling: OSR1 (various enzymes [40]): 100 | Ambit profiling: MARK3 (various enzymes [41]): 43 | Ambit profiling: EIF2AK1 (various enzymes [42]): 66 | Ambit profiling: IGF1R (various enzymes [43]): 69
